Values joined by “and” are separate entries in the source; they are usually repeats but may differ in a detail not shown here. Equal entries are not always repeated. Where two headings read alike, the source gives them in different places.

For data set [1], the system named is HepG2/C3A cells. As to the kind of experiment: Real-time amperometric glucose and lactate measurements in bioreactor outflow. The data set is classed as cell-based, human. The conditions noted are these: for total glucose uptake rate: 50 μM treated cells. How it is done:
Amperometric glucose and lactate sensors were purchased from BioSensor Technology (Berlin, Germany) and embedded in a CNC-fabricated PMMA flow-chamber with an inner volume of 26 μl. The sensors are based on the enzymatic reactions of glucose oxidase, with a linear range of 0.5 mM to 30 mM, and lactate oxidase, with a linear range of 0.5 mM to 20 mM. Both sensors produce H2O2 in amounts proportional to the measured metabolite, which is detected with platinum electrodes under polarized condition. The microfluidic controller (13) was programmed to open a microfluidic valve every hour, allowing a 40 μl medium sample to flow through the switchboard and into the sensors unit. Amperometric measurement lasted 200 seconds and was followed by automated perfusion of PBS washing solution, CAL 4+M calibration buffer (Eschweiler, Germany), and 4 seconds of air bubble acting as a diffusion barrier between samples. Reading was carried out on EmStat3 OEM embedded potentiostat (PalmSens, Netherlands) connected to the central computer.
(§1) Glucose uptake, oxygen uptake and lactate production rates were measured by calculating the change in metabolite concentration between the bioreactor in- and outflow, as function of perfusion rate and cell number as described above. Metabolic rates were calculated assuming negligible contribution to oxygen uptake by fatty acid oxidation and enzymatic activity. Low level of lipids in the culture medium ensured that fatty acid uptake was 50-fold lower than glucose while glutamine contribution to the Krebs cycle was minor (results).

Data set [2] deals with HepG2/C3A cells. As to the kind of experiment: Flux balance analysis of metabolic pathways and ATP production. The conditions noted are these: 50 μM; for ATP production, % of untreated cells: calculated from flux balance; for Glutaminolysis (calculated metabolic flux) / Glycolysis (calculated metabolic flux) / Lipogenesis (calculated metabolic flux) / Respiration (calculated metabolic flux): troglitazone 6 hours, rotenone 3 hours. The data set is classed as cell-based, human. How it is done:
as §1
Based on these assumptions, oxidative phosphorylation flux was calculated by dividing oxygen uptake rate by six. 32 ATP molecules generated by complete oxidation of 1 molecule of glucose were estimated. Glycolysis flux was calculated by dividing lactate production rate by two, with maximal rate defined by glucose uptake rate minus the oxidative phosphorylation flux. ATP production in glycolysis was estimated to be 2 molecules per molecule of glucose. It was assumed that any glucose left over was directed toward lipogenesis, as the contribution of pentose phosphate pathway in nonproliferating cells is minor (31). Finally, it was assumed that excess lactate was produced by glutaminolysis, and confirmed the assumption using offline measurement of glutamine uptake (FIGS. 10A and 10B). ATP production in glutaminolysis was estimated to be 3 molecules per molecule of lactate generated.

For data set [3], the system named is HepG2/C3A cells. Briefly: Seahorse Mitochondrial Stress Test (OCR, ECAR), static culture. The format is cell-based, human. The conditions noted are these: 50 μM; for decrease in maximal mitochondrial capacity: after uncoupler injection. The method, then:
HepG2/C3A cells were plated in gelatin-coated SeaHorse XFp cell culture miniplates (Seahorse Bioscience, USA) and cultured for 24 hours. Subsequently, cultures were treated with medium containing 50 μM troglitazone for 6 hours, 50 μM rotenone for 3 hours, or vehicle control prior to initiation of assay. Mitochondrial Stress Test assay was conducted per manufacturer instructions (29). Briefly, cells were incubated in unbuffered XF Base Medium supplemented with 2 mM glutamine, 1 mM sodium pyruvate, and 10 mM glucose (pH 7.4) for 1 hour at 37° C. in a non-CO2 incubator. Basal oxygen consumption rate (OCR) was measured for 30 min, followed by injection of 1 μM oligomycin, a mitochondrial […] inhibitor that completely blocks oxidative phosphorylation. The decrease in OCR due to oligomycin treatment is defined as oxidative phosphorylation rate. 1 μM carbonyl cyanide-4 (trifluoromethoxy) phenylhydrazone (FCCP), an uncoupling agent, is added at 60 min to measure maximal mitochondrial activity followed by complete inhibition at 90 min using a mixture of 0.5 μM antimycin A and rotenone, mitochondrial Complex III and Complex I inhibitors. Basal extracellular acidification rates (ECAR) was measured for 30 min, in the presence of 10 mM glucose, followed by injection of 1 μM oligomycin. The increase in ECAR due to oligomycin treatment was defined as glycolytic capacity. Data are presented normalized to […] cells as determined by Hoechst DNA content assay.

The test system of data set [4] is HepG2/C3A cells. Briefly: Seahorse glutamine oxidation assay. The data set is classed as cell-based, human. The conditions noted are these: 50 μM, static culture. How it is done:
HepG2/C3A cells were plated in gelatin-coated XFp cell culture miniplates and cultured for 24 hours. Subsequently, cultures were treated with medium containing 50 μM troglitazone for 6 hours, 50 μM rotenone for 3 hours, or vehicle control prior to initiation of assay. Glutamine oxidation assay was conducted per manufacturer instructions. Briefly, cells were incubated in unbuffered XF Base Medium supplemented with 2 mM Glutamine, 1 mM sodium pyruvate, and 10 mM glucose (pH 7.4) for 1 hour at 37° C. in a non-CO2 incubator. Glutamine oxidation was profiled by successive injections of 3 μM BPTES, an allosteric inhibitor of glutaminase (GLS1), and a mixture of 4 μM etomoxir, a carnitine palmitoyl-transferase 1A (CPT1A) inhibitor and 2 μM UK5099 a mitochondrial pyruvate carrier inhibitor, blocking fatty acid oxidation and […], respectively. The decrease in baseline OCR due to BPTES treatment was defined as the rate of glutaminolysis. Data are presented normalized to 10^6 cells as determined by Hoechst DNA content assay.

The next data set concerns HepG2/C3A spheroids. Briefly: Offline glutamine uptake in bioreactor perfusate. The format is cell-based, human. As to conditions: 50 μM. The method, then:
Glutamine concentration was determined using glutamine and glutamate determination kit (Sigma-Aldrich). Bioreactors containing HepG2/C3A spheroids were set up as described in the main text and perfused at 2 μl/min. Perfusate samples were collected for 60 minutes for a total of 120 μl per sample. Glutamine was quantified according to manufacturer directions.

Data set [5] has as its system primary human hepatocytes. The conditions noted are these: cited from earlier work.
[6] abbreviates: 50 μM, after 6 hours of exposure.
Where [7] appears, read: 50 μM, within the first 2 hours.
Setting [8] is: surrogate of lactate production.

As for `C=C(C)[C@H]1Cc2c(ccc3c2O[C@@H]2COc4cc(OC)c(OC)cc4[C@@H]2C3=O)O1` [rotenone], in the data set with HepG2/C3A cells [1] (50 μM), the “exposure time after which the metabolic shift from oxidative phosphorylation to glycolysis occurred” value was found to be 3 h. For the same compound, in the data set with HepG2/C3A cells [1], the “total glucose uptake rate” value is on record as 1.0 nmol/min/10^6. Also, in the data set with HepG2/C3A cells [1] (50 μM, 6 hours after exposure), the “lactate over glucose ratio” value amounted to 6.1. In the data set on HepG2/C3A cells [1] (setting [6]), the “additional drop in glucose uptake” value was 65% and the “change in lactate production” value is recorded as “no change”. For the same compound, the “lactate over glucose ratio” value in the data set on HepG2/C3A cells [1] (50 μM, within 3 hours after exposure) is reported as 2.6. Further, in the data set with HepG2/C3A cells [1] (setting [7]), the “drop in glucose uptake” value was found to be 59% and the “drop in lactate production” value is given as 35%. The “lactate over glucose ratio” value with HepG2/C3A cells [1] (gradual switch to compensatory mechanisms) is listed as “above 2”. Moreover, in the data set with HepG2/C3A cells [2] (after 3 hours of exposure), the “decrease in oxidative phosphorylation flux” value was 90% and the “increase in glycolysis (flux)” value was determined as 34%. In addition, in the data set with HepG2/C3A cells [2], the “ATP production, % of untreated cells” value was “less than 36%”; the “Glutaminolysis (calculated metabolic flux)” value is recorded as 0.56 nmol/min/10^6 cells; the “Glycolysis (calculated metabolic flux)” value is listed as 0.97 nmol/min/10^6 cells; the “Lipogenesis (calculated metabolic flux)” value was 0 nmol/min/10^6 cells. Moreover, the “Respiration (calculated metabolic flux)” value with HepG2/C3A cells [2] is reported as 0.03 nmol/min/10^6 cells. Moreover, in the data set on HepG2/C3A cells [3] (static culture), the “decrease in (mitochondrial) basal metabolic rate” value was 83% and 83±5%; the “decrease in oxidative phosphorylation” value is 85±5% and 85±8%; the glycolytic capacity change entry is listed as “relatively unchanged”; the “decrease in maximal mitochondrial capacity” value was determined as 87%. In addition, the “decrease in extracellular acidification rate (ECAR)” value in the data set with HepG2/C3A cells [3] (setting [8]) was found to be 21±12%. For the same compound, in the data set with HepG2/C3A cells [4], the “increase in glutamine oxidation rate (glutaminolysis)” value came to 382±115% and the increase in glutaminolysis came out at 4±1 folds. In the data set with HepG2/C3A spheroids, the “glutamine uptake (outlet-inlet), in words” value is “increase in glutamine uptake” and the “increase in glutamine consumption (offline measurement)” value is 30±4 folds. Also, in data set [5], the CC50 is 2 µM.

As for `Cc1c(C)c2c(c(C)c1O)CCC(C)(COc1ccc(CC3SC(=O)NC3=O)cc1)O2` (stereo not drawn) [troglitazone], the “total glucose uptake rate” value with HepG2/C3A cells [1] is given as 2.5 nmol/min/10^6. In the data set with HepG2/C3A cells [1] (50 μM, 6 hours after exposure), the “lactate over glucose ratio” value amounted to 1.8. The “increase in lactate production” value with HepG2/C3A cells [1] (50 μM, within 4 to 5 hours) was found to be 51%. In addition, in the data set on HepG2/C3A cells [2] (after 6 hours of exposure), the “decrease in oxidative phosphorylation flux” value was 23% and the “increase in glycolysis (flux)” value is listed as 51%. In addition, in the data set with HepG2/C3A cells [2], the “ATP production, % of untreated cells” value is reported as 97%; the “Glutaminolysis (calculated metabolic flux)” value is 0.02 nmol/min/10^6 cells; the “Glycolysis (calculated metabolic flux)” value is reported as 2.25 nmol/min/10^6 cells; the “Lipogenesis (calculated metabolic flux)” value is recorded as 0 nmol/min/10^6 cells. Besides, the “Respiration (calculated metabolic flux)” value in the data set on HepG2/C3A cells [2] is listed as 0.25 nmol/min/10^6 cells. Further, in the data set on HepG2/C3A cells [3] (static culture), the “decrease in (mitochondrial) basal metabolic rate” value was found to be 20±6% and the “decrease in maximal mitochondrial capacity” value came to 22±9%. Besides, the “increase in extracellular acidification rate (ECAR)” value with HepG2/C3A cells [3] (setting [8]) turned out to be 43±43%. Further, the “increase in glutamine oxidation rate (glutaminolysis)” value with HepG2/C3A cells [4] was 26±30%. For the same compound, the “increase in glutamine consumption (offline measurement)” value in the data set on HepG2/C3A spheroids was determined as 5±2 folds. Also, the CC50 in data set [5] (read-out: TC50 in primary hepatocytes) is 100 µM.

(Values after US20190086391A1, “METHOD AND SYSTEM FOR CONTINUOUS BIOSENSING” (Yissum Research Development Company of the Hebrew …, priority 2016, published 2019).)
